Source: publication PMC13286573, “Exploration of precision coregulator TR-FRET identifies diverse signatures for LXR ligands relevant to discovery of nonlipogenic ABCA1 inducers” (eLife, 2026)
“Also recorded” adds a separate entry of the source.

Legend:
LXRβ [1] = biological target: T1, LXRβ (Homo sapiens, UniProt P55055); experiment: SMRT2 corepressor binding to LXRβ, CRT; format: biochemical; design: The CRT selectivity assay incorporates GST-tagged LXR-LBD; purchased Thermo Fisher Scientific PV4660; conditions: ligand 1 µM, interpolated from concentration-response, normalized; heat map Figure 9A; read-out: SMRT2β, relative % activity at 1 μM
T1 sequence (P55055 222-460 limits assumed): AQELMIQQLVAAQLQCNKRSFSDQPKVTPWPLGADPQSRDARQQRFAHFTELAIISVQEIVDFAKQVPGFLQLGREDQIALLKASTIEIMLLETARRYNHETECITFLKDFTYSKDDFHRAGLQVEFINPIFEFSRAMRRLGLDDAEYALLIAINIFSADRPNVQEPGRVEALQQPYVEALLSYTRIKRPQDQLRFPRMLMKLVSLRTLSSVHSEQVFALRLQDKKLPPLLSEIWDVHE

LXRβ [2] = biological target: T1, LXRβ; experiment: Multiplex precision CRT (pCRT), SRC1 and NCOR2, LXRβ; format: biochemical; design: The CRT selectivity assay incorporates GST-tagged LXR-LBD; purchased Thermo Fisher Scientific PV4660; conditions: presence of SRC1
LXRα [3] = biological target: T2, LXRα (Homo sapiens, UniProt Q13133); experiment: NCOR2 corepressor binding to LXRα, CRT; format: biochemical; design: The CRT selectivity assay incorporates GST-tagged LXR-LBD; purchased Thermo Fisher Scientific PV4657; conditions: ligand 1 µM, interpolated from concentration-response, normalized; heat map Figure 9A; read-out: NCOR2α, relative % activity at 1 μM
T2 sequence (Q13133 209-447 limits assumed): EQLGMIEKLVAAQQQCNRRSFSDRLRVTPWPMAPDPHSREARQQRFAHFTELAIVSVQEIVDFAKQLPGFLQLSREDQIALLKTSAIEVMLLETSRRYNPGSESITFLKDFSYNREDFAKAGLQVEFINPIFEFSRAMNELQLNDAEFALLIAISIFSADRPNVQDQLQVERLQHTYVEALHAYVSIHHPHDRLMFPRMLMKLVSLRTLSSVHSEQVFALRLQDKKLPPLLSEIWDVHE

LXRβ [4] = biological target: T1, LXRβ; experiment: SRC-1 coactivator recruitment to LXRβ, coregulator TR-FRET (CRT); format: biochemical; design: The CRT selectivity assay incorporates GST-tagged LXR-LBD; purchased Thermo Fisher Scientific PV4660; conditions: biotin-SRC-1 CRT; read-out: Potency (EC50) for SRC-1 recruitment to LXRβ
LXRα [5] = biological target: T2, LXRα; experiment: Multiplex precision CRT (pCRT), SRC1 and NCOR2, LXRα; format: biochemical; design: The CRT selectivity assay incorporates GST-tagged LXR-LBD; purchased Thermo Fisher Scientific PV4657; conditions: presence of SRC1, saturating ligand
LXR [6] = system: LXR; design: method as in Belorusova et al., 2019; conditions: ref Belorusova et al., 2019; cited from earlier work
LXRβ [7] = biological target: T1, LXRβ; experiment: NCOR2 corepressor binding to LXRβ, CRT; format: biochemical; design: The CRT selectivity assay incorporates GST-tagged LXR-LBD; purchased Thermo Fisher Scientific PV4660; conditions: ligand 1 µM, interpolated from concentration-response, normalized; heat map Figure 9A; read-out: NCOR2β, relative % activity at 1 μM
LXRα [8] = biological target: T2, LXRα; experiment: SMRT2 corepressor binding to LXRα, CRT; format: biochemical; design: The CRT selectivity assay incorporates GST-tagged LXR-LBD; purchased Thermo Fisher Scientific PV4657; conditions: ligand 1 µM, interpolated from concentration-response, normalized; heat map Figure 9A; read-out: SMRT2α, relative % activity at 1 μM
LXR [9] = experiment: Corepressor (NCOR2, SMRT2) binding to LXR, CRT, statements across isoforms; format: biochemical; conditions: monoplex CRT, absence of coactivator
ABCA1 = experiment: ABCA1-luc reporter assay in CCF-STTG1 astrocytoma cells; format: cell-based, human
Text: Astrocytoma CCF-STTG1 cells, stably transfected with an ABCA1-promoter linked to a luciferase response element, provide a model for ABCA1 induction in astrocytes ([Ben Aissa et al., 2021]). […] Apparent inverse agonist activity in cell-based assays can result from ‘true’ inverse agonist recruitment of corepressors or from antagonist activity towards endogenous sterol LXR agonists. Although we use serum-stripped media, antagonism of endogenous LXR agonists cannot be ruled out.
Low passage CCF-STTG1 cells (20,000 cells/well) were seeded in 96-well plates in media containing charcoal-stripped FBS and incubated at 37 °C and 5% CO2 for 24 hr prior to a 24 hr treatment. All compounds were dissolved in DMSO, and final DMSO concentrations never exceeded 1%. After a 24 hr incubation period, add a volume of ONE-GLOEX Reagent that is equal to the volume of culture medium in each well and incubate for 3–5 min on the shaker. The luminescent activity of compounds ([…], 10-fold dilution) was examined using the ONE-GLOEX assay (Promega). […] The assays were performed in duplicates for each concentration, and the EC50 values were determined from non-linear regression analysis of the dose-response curve generated in GraphPad Prism 9.

human volunteers = conditions: 2016, cited from earlier work
[10] = system: sterol response element (SRE); experiment: SRE-luc reporter assay in HepG2 cells; format: cell-based, human; conditions: concentrations ≤1 µM
Text: Our phenotypic high-throughput screen (HTS) approach to identify nonlipogenic ABCA1 Inducers (NLAI) originally used counterscreening with a SREBP1c-luciferase reporter (linked to the SREBF1 gene promoter) in human hepatocarcinoma HepG2 cells ([Ben Aissa et al., 2021]). Unwanted lipogenesis is mediated by LXR agonists via direct transcriptional activation and indirectly by the effects of SREBP1c ([Schultz et al., 2000]; [Brown and Goldstein, 1997]). SREBP1c enhances transcription of genes required for synthesis of fatty acids and TG and as the dominant isoform in liver is associated most closely with lipogenesis and TG elevation ([Brown and Goldstein, 1997]). […] Binding of SREBP1c to the sterol response element (SRE) induces transcription of lipogenic genes associated with elevated TG. To better model the lipogenic axis in hepatocytes, we use HepG2 cells stably transfected with a nanoluciferase reporter downstream of a SRE promoter (SRE-luc), activation of which requires SREBP1c maturation.
HepG2 cells were cotransfected with SRE (LDLR)-NlucP SuperPiggyBac Transposon and a separate Transposase plasmid (System Biosciences). Cells were expanded for multiple passages followed by selection with puromycin (1 μg/ml). Stable cells constitutively express GFP allowed for FACS enrichment and/or cell cloning. Initially, stable pools were compared to low expressing and high expressing enriched pools. The optimal pool was selected based on assay performance (Z’) and was grown and maintained as above, with the addition of 1.0 μg/mL of puromycin biweekly.
Cells were split into flasks containing CS medium (EMEM supplemented with 10% charcoal stripped FBS (Gibco A52567-01)) and 1% P/S and grown at 37 °C /5% CO2 for 48 hr before plating. Cells were plated in 384-well, white clear tissue culture plates (Greiner 781098) and allowed to grow at 37 °C /5% CO2 for 24 hr before medium was aspirated and compound dilutions prepared in CS medium were added. Following a 24 hr incubation, the medium was aspirated, and cells were lysed/luminescence quantified using the Nano-Glo Luciferase Assay System (Promega N1130).

activity at 1 µM (LXRβ [1]): 153%
NCOR2 displacement from LXRβ in pCRT (LXRβ [2]): fully displaced
activity at 1 µM (LXRα [3]): 142%
EC50 (LXRβ [4]): 10 nM
Maximal signal for NCOR2-bound LXRα in pCRT (LXRα [5]): significantly higher than zero
activity at 1 µM (LXRβ [7]): 129%
activity at 1 µM (LXRα [8]): 152%
SMILES: CC(C)(O)c1cn(-c2ccc(-c3cc(F)c(CO)c(S(C)(=O)=O)c3)cc2F)c(C(C)(C)c2c(Cl)cccc2Cl)n1 [XL041]
Ligand behaviour in HDX-MS analysis (H12 conformation) (LXR [6]): act as an antagonist
Corepressor (NCOR2, SMRT2) displacement or stabilization, across LXR isoforms (LXR [9]): stabilized LXR complexes with corepressor bound; also recorded: strongly stabilized the corepressor-bound conformation
Selectivity for ABCA1 induction versus SRE activation (potency correlation outliers) (ABCA1; CCF ABCA1-luc versus HepG2 SRE-luc): selectivity for ABCA1 induction
ABCA1 induction response/phenotype in CCF cells (ABCA1; normalized to T0): partial agonist response
Cmax (human volunteers; human, 2.5 mg/kg p.o., Day 14, ref Kirchgessner et al., read-out: Cmax, drug concentration in plasma): ~30 nM
T½ (human volunteers; human, ref Kirchgessner et al.): ≈ 13 hr
Adverse effects in clinical trials (human volunteers; multi-day dosing, healthy and statin-treated subjects, ref Kirchgessner et al.): elevated plasma and liver lipids and neutropenia
ABCA1 expression in trial subjects (human volunteers; ref Katz et al., 2009, Kirchgessner et al.): increased ABCA1 expression in trial subjects
Efficacy of SRE activation at concentrations ≤1 µM [10]: 20–25 % of T0
